Where a name gives a salt, the structure may show the parent alone. Read-outs that look alike come from different tables or passages of the source. One block for each molecule: values may come before it.
Key:
[1] = nasal administration; cited from earlier work
[2] = system: Parkinson's Disease patients; assay: Therapeutic effect (conversion from off to on state) after pulmonary inhalation, clinical trial; type: in vivo
[3] = Safety results: treatment emergent adverse events after inhaled apomorphine; type: in vivo, patients; settings: Nominal Doses of 400 μg, 1000 μg and 1600 μg
Procedure: Safety results: Few patients experienced treatment emergent adverse events (TEAEs) and there were no notable differences in incidence or types of TEAEs among the treatment groups. […] Most common TEAEs at <24 h post dose were nervous system disorders.

[4] = Visual assessment of pMDI suspension formulations; type: physicochemical
Procedure: Nine formulations (see Table 1 and Table 2) were manufactured.
Reduction of the drug concentration (300 μg/50 μl) was investigated in Formulations 4-6 (see FIGS. 5-8).

[5] = system: Parkinson's Disease patients; settings: injected under the skin; cited from earlier work
[6] = Pharmacokinetics after pulmonary inhalation of apomorphine; type: in vivo, patients; settings: for AUC(0-t) / AUC(0-inf) / Cmax / Tmax: human, plasma, inhaled or intranasal; for AUC(0-t): read-out: AUC(0-t), Mean (SD) (converted); for AUC(0-inf): read-out: AUC(0-∞), Mean (SD) (converted); for Cmax: read-out: Cmax, Mean (SD)
[7] = Solubility in pMDI propellant formulations; type: physicochemical; settings: within ethanol-based HFA 134a pMDI formulations
Procedure: Previously a low dose (<25 μg/50 μl) HFA134a/HFA 227 solution formulation has been produced but only at high ethanol contents (50% w/w).

[8] = 1000 μg inhaled, N = 6, 30% apomorphine in 70% lactose blend

suspension behaviour (visual assessment) ([4]; 264 μg/50 μl suspension in HFA 227): cream (float) | suspension behaviour (visual assessment) ([4]; 300 μg/50 μl in pure HFA134a): rapidly sediment | suspension behaviour (visual assessment) ([4]; 600 μg/50 μl in pure HFA134a): rapidly sedimented | density ([4]; density matched at approximately 60% w/w HFA 227 and 40% w/w HFA134a): about 1.33 g/ml | k, Mean (SD) ([6]; 400 μg inhaled, N = 6, 20% apomorphine in 80% lactose blend): 0.01 (0.00) | tmax, Mean (SD) ([6]; 400 μg inhaled, N = 6, 20% apomorphine in 80% lactose blend, in min): 1.0 (0.0) | AUC(0-∞), Mean (SD) [6, 8]: 216.93 (99.30) ng · min/mL | k, Mean (SD) [6, 8]: 0.01 (0.00) | k, Mean (SD) ([6]; 1600 μg inhaled, N = 6, 30% apomorphine in 70% lactose blend): 0.02 (0.00) | AUC(0-t) ([6]; 400 ug): 0.792 ng·h/mL | AUC(0-inf) ([6]; 400 ug): 0.945 ng·h/mL | Cmax ([6]; 400 ug): 3.03 ng/mL | Tmax ([6]; 1000 ug, 1000 μg inhaled, N = 6, 30% apomorphine in 70% lactose blend, read-out: tmax, Mean (SD) (converted)): 2.6 min | AUC(0-t) ([6]; 1000 ug): 2.81 ng·h/mL | Cmax ([6]; 1000 ug): 10 ng/mL | Tmax ([6]; 1600 ug, 1600 μg inhaled, N = 6, 30% apomorphine in 70% lactose blend, read-out: tmax, Mean (SD) (converted)): 2.2 min | AUC(0-t) ([6]; 1600 ug): 4.51 ng·h/mL | AUC(0-inf) ([6]; 1600 ug): 5.03 ng·h/mL | Cmax ([6]; 1600 ug): 11.9 ng/mL | Tmax ([6]; Tmax / time of peak apomorphine plasma concentration, pulmonary inhalation): 1 to 3 min | dose proportionality of AUC(0-t), AUC(0-∞) and Cmax ([6]; pulmonary inhalation, 400-1600 μg): Dose proportionality was observed
Compound: CN1CCc2cccc3c2[C@H]1Cc1ccc(O)c(O)c1-3 [Apomorphine, apomorphine]
Tmax [1]: approximately 15 minutes | mean duration of the therapeutic effect ([2]; clinical trial, pulmonary inhalation): 75 min | onset of the therapeutic effect (conversion) ([2]; majority of patients, after inhaling apomorphine): ≤ 10 min | conversion from the off to the on state ([2]; some patients, as quickly as, pulmonary inhalation): 2 min | tolerability [3]: well tolerated | period for which the effect is maintained [5]: about 60 minutes | time to bring about an on time [5]: 7 to 10 min

solubility [7]: low solubility
Compound: CN1CCc2cccc3c2[C@H]1Cc1ccc(O)c(O)c1-3 [apomorphine hydrochloride]
